Results from patent US7973034B2, “Amide, aryl sulfonamide, aryl urea, and α,β-diketone derived carboxylesterase inhibitors, and their methods of use” (priority 2003, dated 2011).
Where two headings read alike, the source gives them in different places.

Experiments:
[1] = target: T1, human acetylcholinesterase (hAcChE) (Homo sapiens, UniProt P22303); test: biochemical; type: biochemical
T1 construct: purchased Sigma Biochemicals (St. Louis, Mo.)
Method: Data was transferred to GraphPad Prism software, and Ki values were calculated as described in the Example above.

[2] = target: T2, human liver carboxylesterase (hCE1) (Homo sapiens, UniProt P23141); test: biochemical; type: biochemical
T2 sequence (P23141 18-567): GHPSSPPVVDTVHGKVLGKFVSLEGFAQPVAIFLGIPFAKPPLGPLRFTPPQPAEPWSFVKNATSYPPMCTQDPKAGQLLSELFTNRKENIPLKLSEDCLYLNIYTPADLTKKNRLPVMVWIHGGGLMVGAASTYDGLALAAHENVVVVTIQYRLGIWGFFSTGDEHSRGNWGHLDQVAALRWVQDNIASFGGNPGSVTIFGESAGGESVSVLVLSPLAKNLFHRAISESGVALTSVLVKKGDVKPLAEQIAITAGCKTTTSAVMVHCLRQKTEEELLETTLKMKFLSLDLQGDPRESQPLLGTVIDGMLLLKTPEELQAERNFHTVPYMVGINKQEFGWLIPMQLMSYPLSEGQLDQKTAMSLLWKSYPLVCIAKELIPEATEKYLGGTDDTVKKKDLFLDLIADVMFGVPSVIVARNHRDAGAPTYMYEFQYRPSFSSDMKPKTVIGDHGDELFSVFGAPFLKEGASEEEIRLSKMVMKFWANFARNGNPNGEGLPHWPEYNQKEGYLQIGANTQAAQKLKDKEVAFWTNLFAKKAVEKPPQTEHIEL

[3] = target: human butyrylcholinesterase (hBuChE) (Homo sapiens, UniProt P06276); test: biochemical
[4] = target: T3, rabbit liver carboxylesterase (rCE) (Oryctolagus cuniculus, UniProt P12337); test: biochemical; type: biochemical
T3 sequence (P12337 19-565): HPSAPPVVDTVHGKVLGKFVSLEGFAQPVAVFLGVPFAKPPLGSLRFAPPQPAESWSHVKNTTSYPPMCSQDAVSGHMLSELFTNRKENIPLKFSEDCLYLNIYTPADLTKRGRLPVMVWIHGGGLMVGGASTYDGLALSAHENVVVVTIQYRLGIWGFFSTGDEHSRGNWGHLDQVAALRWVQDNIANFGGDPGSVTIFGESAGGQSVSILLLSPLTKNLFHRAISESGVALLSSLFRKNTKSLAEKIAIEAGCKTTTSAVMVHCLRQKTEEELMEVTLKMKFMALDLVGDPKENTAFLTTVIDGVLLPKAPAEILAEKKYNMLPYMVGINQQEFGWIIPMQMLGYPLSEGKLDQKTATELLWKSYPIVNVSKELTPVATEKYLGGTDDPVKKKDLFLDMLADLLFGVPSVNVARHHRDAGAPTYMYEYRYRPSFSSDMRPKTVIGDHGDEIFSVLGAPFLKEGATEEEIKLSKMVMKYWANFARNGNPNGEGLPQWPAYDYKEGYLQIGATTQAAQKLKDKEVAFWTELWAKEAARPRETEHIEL

[5] = target: T4, human small intestine carboxylesterase (hiCE) (Homo sapiens, UniProt O00748); test: biochemical; type: biochemical
T4 sequence (O00748 27-559): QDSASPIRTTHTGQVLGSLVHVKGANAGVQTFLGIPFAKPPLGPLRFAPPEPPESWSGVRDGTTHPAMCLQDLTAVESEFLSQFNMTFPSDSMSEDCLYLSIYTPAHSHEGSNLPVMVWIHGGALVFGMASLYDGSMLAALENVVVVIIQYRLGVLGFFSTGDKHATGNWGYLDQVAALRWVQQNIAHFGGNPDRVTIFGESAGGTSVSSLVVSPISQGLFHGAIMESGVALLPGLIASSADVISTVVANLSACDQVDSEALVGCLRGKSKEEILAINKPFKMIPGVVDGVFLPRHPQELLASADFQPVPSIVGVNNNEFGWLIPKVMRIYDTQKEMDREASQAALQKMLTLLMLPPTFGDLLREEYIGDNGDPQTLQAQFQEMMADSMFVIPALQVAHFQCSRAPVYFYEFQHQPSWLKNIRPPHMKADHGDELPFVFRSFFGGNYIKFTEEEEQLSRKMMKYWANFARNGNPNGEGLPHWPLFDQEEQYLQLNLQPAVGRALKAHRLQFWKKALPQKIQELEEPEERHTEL

[6] = target: T5, human intestinal carboxylesterase in U373MGhiCE cells (Homo sapiens, UniProt O00748); test: Inhibition of intracellular carboxylesterase in U373MGhiCE cells; type: cell-based
T5 construct: expressed in transfected cells; host or cells: U373MG human glioma cells (U373MGhiCE)
T5 sequence (O00748 27-559): T4 sequence (O00748 27-559)
Method: To monitor the ability of the compounds to cross the cell membrane and inhibit carboxylesterase activity intracellularly, an assay using human tumor cells expressing hiCE was devised. U373MGhiCE (a human glioma cell line transfected with a plasmid expressing hiCE) were plated in T25 flasks and allowed to grow to confluency (approximately 2-5×10^5 cells). Inhibitors were then added at a final concentration of […], and incubation allowed to continue for 1 hour. At this time, the cells were washed extensively with 5 ml of complete media and 2×5 ml of Hanks balanced salt solution, and cell extracts were prepared. Carboxylesterase activity was then determined using o-NPA as a substrate.
Table 8 sets forth the level of intracellular enzyme inhibition following incubation of human glioblastoma tumor cells expressing human intestinal carboxylesterase with 10 μM of each compound identified in Table 3.

[7] = o-NPA as substrate, Table 6, read-out: hCE1 Ki ± SE
[8] = butyrylthiocholine as substrate, Table 6, read-out: hBuChE Ki
[9] = o-NPA as substrate, Table 6, read-out: rCE Ki ± SE
[10] = acetylthiocholine as substrate, Table 6, read-out: hAcChE Ki
[11] = o-NPA as substrate, Table 6, read-out: hiCE Ki ± SE
[12] = acetylthiocholine substrate, Table 5, read-out: Ki hAcChE
[13] = o-NPA as substrate, Table 5, read-out: Ki hCE1
[14] = o-NPA as substrate, Table 5, read-out: Ki hiCE

T1 sequence (P22303 32-614): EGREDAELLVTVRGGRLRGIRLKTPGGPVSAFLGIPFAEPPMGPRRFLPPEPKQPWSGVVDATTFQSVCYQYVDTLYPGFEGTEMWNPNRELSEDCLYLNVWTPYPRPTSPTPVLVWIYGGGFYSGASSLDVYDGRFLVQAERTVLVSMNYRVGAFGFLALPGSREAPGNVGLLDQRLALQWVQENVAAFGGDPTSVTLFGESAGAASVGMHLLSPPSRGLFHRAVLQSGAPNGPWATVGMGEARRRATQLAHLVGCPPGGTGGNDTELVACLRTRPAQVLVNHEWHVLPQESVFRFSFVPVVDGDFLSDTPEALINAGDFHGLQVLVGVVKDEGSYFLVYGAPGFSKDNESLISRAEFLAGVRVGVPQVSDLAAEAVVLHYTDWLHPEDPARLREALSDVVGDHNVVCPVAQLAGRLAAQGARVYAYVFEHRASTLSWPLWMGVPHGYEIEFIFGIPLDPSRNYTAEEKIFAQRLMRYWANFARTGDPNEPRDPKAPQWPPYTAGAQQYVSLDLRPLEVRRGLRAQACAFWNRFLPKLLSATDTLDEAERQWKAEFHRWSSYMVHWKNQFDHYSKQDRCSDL
Sequence of human butyrylcholinesterase (hBuChE) (P06276 29-602): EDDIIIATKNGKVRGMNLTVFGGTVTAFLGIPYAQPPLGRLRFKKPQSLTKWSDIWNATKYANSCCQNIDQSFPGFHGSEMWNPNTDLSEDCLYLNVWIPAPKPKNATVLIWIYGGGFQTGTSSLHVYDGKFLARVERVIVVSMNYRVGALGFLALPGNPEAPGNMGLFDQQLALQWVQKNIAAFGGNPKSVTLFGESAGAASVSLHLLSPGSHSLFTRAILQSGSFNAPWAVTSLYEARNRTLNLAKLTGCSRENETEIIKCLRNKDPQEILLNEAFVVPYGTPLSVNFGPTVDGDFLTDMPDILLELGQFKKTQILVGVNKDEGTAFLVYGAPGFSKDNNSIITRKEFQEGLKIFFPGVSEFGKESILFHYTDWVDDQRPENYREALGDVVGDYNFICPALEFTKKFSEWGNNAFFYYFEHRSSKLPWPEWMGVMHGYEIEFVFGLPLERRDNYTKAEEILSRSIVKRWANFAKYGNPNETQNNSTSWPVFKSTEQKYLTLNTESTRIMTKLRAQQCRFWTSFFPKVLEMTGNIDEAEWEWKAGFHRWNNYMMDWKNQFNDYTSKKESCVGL

Compound	Ki [1]	Ki [2, 7]	Ki [3, 8]	Ki [4, 9]	Ki [3]	Ki [1, 10]	also measured
O=C(C(=O)c1ccc(Br)c([N+](=O)[O-])c1)c1ccc(Br)c([N+](=O)[O-])c1 [Compound 4, 1,2-bis(4-bromo-3-nitrophenyl)ethane-1,2-dione]	> 100 µM	> 100 µM	> 100 µM	0.0087 ± 0.0013 µM			Ki [5]: > 100 µM
COc1ccc(C(=O)C(=O)c2ccccc2Cl)cc1OC [Compound 8, 1-(2-chlorophenyl)-2-(3,4-dimethoxyphenyl)ethane-1,2-dione]		3.3 µM		0.036 ± 0.012 µM	> 100 µM		
O=C(C(=O)c1cc(Br)ccc1O)c1cc(Br)ccc1O [Compound 9, 1,2-bis(5-bromo-2-hydroxyphenyl)ethane-1,2-dione]	> 100 µM		> 100 µM	0.0535 ± 0.0094 µM			Ki [2]: > 100 µM
O=C(C(=O)c1ccc(O)cc1O)c1ccc(O)cc1O [Compound 10, 1,2-bis(2,4-dihydroxyphenyl)ethane-1,2-dione]		> 100 µM		> 100 µM	> 100 µM	> 100 µM	Ki [5, 11]: 1.73 µM
O=C(C(=O)c1ccc([N+](=O)[O-])cc1[N+](=O)[O-])c1ccccc1 [Compound 11, 1-(2,4-dinitrophenyl)-2-phenylethane-1,2-dione]	> 100 µM	> 100 µM	> 100 µM	0.52 ± 0.031 µM			
O=C(C(=O)c1c(Cl)c(Cl)c(Cl)c(Cl)c1Cl)c1c(F)c(F)c(F)c(F)c1F [Compound 12, 1-(pentachlorophenyl)-2-(pentafluorophenyl)ethane-1,2-dione]	> 100 µM		> 100 µM	0.823 ± 0.215 µM			Ki ([2]; read-out: hCE1 Ki ± SE): 1.69 µM
CN(C)c1ccc(C(=O)C(=O)c2ccc(N(C)C)cc2)cc1 [Compound 13, 1,2-bis[4(dimethylamino)phenyl]ethane-1,2-dione]		> 100 µM	> 100 µM	2.4 µM		> 100 µM	Ki [5, 11]: > 100 µM
O=C(C(=O)c1ccc(Br)cc1)c1ccc(Br)cc1 [Compound 15, 1,2-bis(4-bromophenyl)ethane-1,2-dione]		> 100 µM		0.0041 ± 0.0005 µM	> 100 µM	> 100 µM	
O=C(C(=O)c1ccc(Cl)cc1)c1ccc(Cl)cc1 [Compound 18, 1,2-bis(4-chlorophenyl)ethane-1,2-dione]		> 100 µM		0.0141 ± 0.0025 µM	> 100 µM	> 100 µM	
COc1ccc(C(=O)C(=O)c2ccc(OC)cc2)cc1 [Compound 21, 1,2-bis(4-methoxyphenyl)ethane-1,2-dione]		3.41 µM		0.58 ± 0.157 µM	> 100 µM	> 100 µM	
O=C1C=Cc2ccccc2C1=O [Compound 29, Naphthalene-1,2-dione]							inhibition of hAcChE [1]: inhibited; inhibition of hCE1 [2]: inhibition; inhibition of rCE [4]: inhibition; inhibition of hiCE [5]: inhibition
O=C(C(=O)c1ccccc1Cl)c1ccccc1Cl [Compound 30, 1,2-bis(2-chlorophenyl)ethane-1,2-dione]	> 100 µM		> 100 µM	0.22 ± 0.037 µM			Ki ([2]; read-out: hCE1 Ki ± SE): 1.65 µM
O=C(C(=O)c1ccc(Cl)cc1)c1ccccc1 [Compound 31, 1-(4-chlorophenyl)-2-phenylethane-1,2-dione]		0.0474 ± 0.0068 µM		0.0239 ± 0.0029 µM	> 100 µM	> 100 µM	
Cc1ccc(C(=O)C(=O)c2ccccc2)cc1 [Compound 32, 1-(4-methylphenyl)-2-phenylethane-1,2-dione]		0.125 ± 0.015 µM	> 100 µM	0.119 ± 0.02 µM		> 100 µM	
COc1cccc(C(=O)C(=O)c2cccc(OC)c2)c1 [Compound 33, 1,2-bis(3-methoxyphenyl)ethane-1,2-dione]		1.54 µM		0.0721 ± 0.0091 µM	> 100 µM		
O=C(C(=O)c1cccc([N+](=O)[O-])c1)c1cccc([N+](=O)[O-])c1 [Compound 34, 1,2-bis(3-nitrophenyl)ethane-1,2-dione]	> 100 µM	18.1 µM	> 100 µM				Ki ([4]; read-out: rCE Ki ± SE): 0.267 ± 0.03 µM
O=C(C(=O)c1ccc(O)cc1)c1ccc(O)cc1 [Compound 35, 1,2-bis(4-hydroxyphenyl)ethane-1,2-dione]		> 100 µM		> 100 µM	> 100 µM	> 100 µM	Ki [5, 11]: 1.2 µM
O=C(C(=O)c1ccc(O)c([N+](=O)[O-])c1)c1ccc(O)c([N+](=O)[O-])c1 [Compound 36, 1,2-bis(4-hydroxy-3-nitrophenyl)ethane-1,2-dione]	> 100 µM		> 100 µM				Ki [4]: > 100 µM; Ki [5]: > 100 µM
COc1ccc(C(=O)C(=O)c2ccc(OC)c([N+](=O)[O-])c2)cc1[N+](=O)[O-] [Compound 37, 1,2-bis(4-methoxy-3-nitrophenyl)ethane-1,2-dione]	> 100 µM		> 100 µM				Ki [2]: > 100 µM; Ki [5]: > 100 µM
O=C(C(=O)c1ccc(C(=O)C(=O)c2ccccc2)cc1)c1ccccc1 [Compound 38, 1-{4-[oxo(phenyl)acetyl]phenyl}-2-phenylethane-1,2-dione]				0.0061 ± 0.0006 µM		> 100 µM	
COc1cc(OC)c(NC(=O)c2cc3ccccc3cc2O)cc1Cl [Compound 42, N-(5-chloro-2,4-dimethoxyphenyl)-3-hydroxy-2-naphthamide]							Ki [1, 12]: > 100 µM; Ki [2, 13]: > 100 µM; inhibition at 10 µM [6]: 0%; Ki [5, 14]: 0.159 µM
Cc1cccc(C)c1NC(=O)Nc1ccc([N+](=O)[O-])cc1 [Compound 54, N-(2,6-dimethylphenyl)-N′-(4-nitrophenyl)urea]							Ki [1, 12]: > 100 µM; Ki [2, 13]: > 100 µM; inhibition at 10 µM [6]: 0%; Ki [5, 14]: 0.32 µM
Cc1cc([N+](=O)[O-])ccc1NC(=O)Nc1cccc(F)c1 [Compound 55, N-(3-fluorophenyl)-N′-(2-methyl-4-nitrophenyl)urea]							Ki [1, 12]: > 100 µM; Ki [2, 13]: > 100 µM; Ki [5, 14]: 1.28 µM
Cc1cc([N+](=O)[O-])ccc1NC(=O)Nc1ccccc1 [Compound 56, N-(2-methyl-4-nitrophenyl)-N′-phenylurea]							Ki [1, 12]: > 100 µM; Ki [2, 13]: > 100 µM; inhibition at 10 µM [6]: 0%; Ki [5, 14]: 1.52 µM
